Experimental data as given in ChEMBL document CHEMBL5257029, “Contemporary developments in the discovery of selective factor Xa inhibitors: A review” (Eur J Med Chem, 2016).
pKi: −log10 of the molar value.

Molecular target: Coagulation factor X (Homo sapiens, UniProt P00742)
Test: Binding affinity to FXa (unknown origin) assessed as inhibition constant

Coagulation factor X, sequence (P00742 41-179 limits assumed): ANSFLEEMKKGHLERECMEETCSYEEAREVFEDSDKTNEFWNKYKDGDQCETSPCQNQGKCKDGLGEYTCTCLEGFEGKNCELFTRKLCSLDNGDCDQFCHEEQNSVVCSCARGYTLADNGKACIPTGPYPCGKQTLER
Coagulation factor X, sequence (P00742 235-488 limits assumed): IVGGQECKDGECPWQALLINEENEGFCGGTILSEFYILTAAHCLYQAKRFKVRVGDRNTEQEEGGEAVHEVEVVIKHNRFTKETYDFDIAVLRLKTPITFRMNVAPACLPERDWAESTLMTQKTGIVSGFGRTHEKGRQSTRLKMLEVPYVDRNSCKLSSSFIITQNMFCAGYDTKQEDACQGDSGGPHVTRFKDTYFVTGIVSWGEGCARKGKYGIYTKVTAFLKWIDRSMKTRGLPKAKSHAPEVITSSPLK

Row | pKi | Compound
1 | 8.70 | CC(C)N1CCC(NS(=O)(=O)CCNC(=O)c2ccc(Cl)s2)CC1
2 | 9.04 | NCc1cccc(-n2nc(C(F)(F)F)cc2C(=O)Nc2ccc(-c3ccccc3S(N)(=O)=O)cc2F)c1
3 | 7.60 | N=C(N)c1ccc(C[C@@H](NC(=O)NC23CC4CC(CC(C4)C2)C3)C(=O)NCCc2ccccc2)cc1
